# pIC50: −log10 of the molar value. Read-outs that look alike come from different tables or passages of the source.
# Assays:
# 5-lipoxygenase = target: T1, 5-lipoxygenase (Rattus norvegicus, UniProt P12527); assay: Inhibition of 5-lipoxygenase, in vitro (5-HETE formation, RBL-1 homogenate supernatant); assay type: biochemical
# T1 construct: The 100,000×g supernatant fraction of Rat Basophilic Leukemia Cell Homogenate (RBL-1); endogenous in cells; host or cells: RBL-1 (rat basophilic leukemia) cells, 100,000xg supernatant of homogenate
# T1 sequence (P12527 1-673): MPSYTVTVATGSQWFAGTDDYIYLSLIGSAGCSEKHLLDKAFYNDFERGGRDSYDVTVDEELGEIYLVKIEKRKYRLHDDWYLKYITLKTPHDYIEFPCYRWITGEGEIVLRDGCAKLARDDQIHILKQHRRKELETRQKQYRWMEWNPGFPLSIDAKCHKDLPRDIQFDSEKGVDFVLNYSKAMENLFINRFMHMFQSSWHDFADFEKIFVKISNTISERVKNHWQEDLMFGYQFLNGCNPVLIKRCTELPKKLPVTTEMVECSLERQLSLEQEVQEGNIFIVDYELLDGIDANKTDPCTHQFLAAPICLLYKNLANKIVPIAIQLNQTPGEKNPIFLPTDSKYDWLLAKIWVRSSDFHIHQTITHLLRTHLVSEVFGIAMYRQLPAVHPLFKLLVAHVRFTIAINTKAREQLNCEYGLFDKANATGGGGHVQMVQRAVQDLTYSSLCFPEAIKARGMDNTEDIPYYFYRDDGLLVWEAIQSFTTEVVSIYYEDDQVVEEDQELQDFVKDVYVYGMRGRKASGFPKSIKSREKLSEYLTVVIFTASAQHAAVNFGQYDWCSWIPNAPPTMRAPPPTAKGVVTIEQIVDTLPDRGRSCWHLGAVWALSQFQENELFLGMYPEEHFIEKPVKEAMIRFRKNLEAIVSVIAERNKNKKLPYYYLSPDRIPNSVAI
# Description: The compounds of the invention are evaluated with respect to 5-lipoxygenaseinhibition according to the following assay procedure.
# Inhibition of 5-lipoxygenase, in vitro:
# The 100,000×g supernatant fraction of Rat Basophilic Leukemia Cell Homogenate (RBL-1) serves as a 5-lipoxygenase enzyme source. The enzyme is incubated with [1-^4 C)-arachidonic acid and Ca++ in the presence and absence of test compound. The product of 5-lipoxygenase, 5-hydroxyeicosatetraenoic acid (5-HETE), is separated by thin-layer chromatography and measured by radioactivity. A compound inhibiting 5-HETE synthesis by 30% or more is considered active at that concentration.
# For comparison the compound of Formula XX, a known 5-lipoxygenase inhibitor described in U.S. Pat. No. 4,755,524 was used: [drawing 29] (±)[2S*-[[3,5-bis(1,1-dimethylethyl)-4-hydroxyphenyl]thio]-1R*-methylpro poxy]acetic acid.
# [1] = system: Human neutrophil superoxide generation; assay: Human neutrophil superoxide generation, FMLP-induced; assay type: cell-based
# Description: The compounds of the present invention are evaluated with respect to superoxide modulating activity according to the following assay procedure:
# Human neutrophil superoxide generation:
# Superoxide generation by formyl-methionyl-leucyl-phenylalanine (FMLP)-stimulated neutrophils was quantitated by the reduction of cytochrome C (Badwey, J. A., Curnutte, J. T. and Karnovsky, M. L., cis-Polyunsaturated fatty acids induce high levels of superoxide production by human neutrophils. J. BIOL. CHEM. 256: 12640-12643, 1981, which is incorporated herein by reference.) To 5 million neutrophils in 2.85 ml of Krebs-Ringer phosphate buffer, pH 7.2, 50 ul of inhibitor (in 10% DMSO/buffer), and 50 ul ferricytochrome C (5 mM, stock) were added and preincubated for 3 minutes at 37° C. Absorption measurements at 550 nm were recorded at start of preincubation. Fifty ul FMLP (6 uM, stock) was added to initiate reaction. A plateau was reached within 3 minutes and this reading minus the initial reading (before addition of FMLP) was used to calculate nanomoles of superoxide generated based on a molar extinction coefficient of 2.1×10^4 cm^-1 mole^-1.
# Isolation of human neutrophils:
# Human neutrophils were isolated from freshly drawn blood of healthy donors. […] The red cell lysing procedure was repeated, the cells suspended in appropriate buffer (depending on assay) and counted.
# [2] = in vivo; cited from earlier work
# [3] = target: T2, Sheep Seminal Vesicle Microsome Cyclooxygenase (Ovis aries, UniProt P05979); assay: Inhibition of Sheep Seminal Vesicle Microsome Cyclooxygenase; assay type: biochemical; settings: for pIC50: sheep seminal vesicle microsomes
# T2 construct: Lyophilized ovine microsome (approximately 1 mg) suspended in 2.9 ml Tris-HCl buffer; from tissue; host or cells: sheep seminal vesicle microsomes, lyophilized
# T2 sequence (P05979 25-600): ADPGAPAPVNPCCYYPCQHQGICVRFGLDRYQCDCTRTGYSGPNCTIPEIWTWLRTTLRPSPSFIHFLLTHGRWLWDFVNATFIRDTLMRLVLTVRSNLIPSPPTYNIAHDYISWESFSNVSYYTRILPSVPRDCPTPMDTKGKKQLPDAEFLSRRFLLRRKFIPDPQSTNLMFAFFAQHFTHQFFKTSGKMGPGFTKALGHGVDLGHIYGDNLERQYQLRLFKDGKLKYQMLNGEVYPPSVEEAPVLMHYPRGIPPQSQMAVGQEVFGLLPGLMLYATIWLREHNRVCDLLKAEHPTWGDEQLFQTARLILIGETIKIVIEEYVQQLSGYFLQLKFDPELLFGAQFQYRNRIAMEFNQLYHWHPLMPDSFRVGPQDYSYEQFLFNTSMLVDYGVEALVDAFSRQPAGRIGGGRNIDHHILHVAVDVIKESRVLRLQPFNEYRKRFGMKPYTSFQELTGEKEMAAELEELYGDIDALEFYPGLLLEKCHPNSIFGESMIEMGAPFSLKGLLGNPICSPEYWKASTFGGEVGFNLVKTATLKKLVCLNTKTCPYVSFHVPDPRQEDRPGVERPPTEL
# Description: The compounds of the present invention evaluated with respect to cyclooxygenase inhibition according to the following assay procedure. Inhibition of Sheep Seminal Vesicle Microsome Cyclooxygenase: This assay was based on oxygen consumption during conversion of arachidonic acid to prostaglandin G2 catalyzed by cyclooxygenase BIOCHEM. 11:3276-3285 (1972), which is incorporated herein by reference. Lyophilized ovine microsome (approximately 1 mg) suspended in 2.9 ml Tris-HCl buffer, pH 8.2, containing 0.7 mM phenol were used as source of arachidonate cyclooxygenase. The inhibitor, 50 μl in DMSO, was added and the mixture was preincubated for 5 minutes at 37° C. Fifty μl of arachidonic acid (final concentration 50 μM) was added to start the reaction. The slopes of the initial rates of oxygen uptake, in the presence and absence of inhibitor, were compared to determine reaction inhibition. Percent inhibition was computed using the following formula: [formula]
# Rats = assay: Chronic adjuvant-induced polyarthritis test; assay type: in vivo; settings: intragastric; for minimal effective dose: Rattus norvegicus, po, 456 h, 18 days, rats, read-out: Minimum dose to result in a statistically significant reduction [p < 0.05] in the paw volume/body weight ratio; for % Inhibition in the paw volume to body weight ratio: at minimum significant dose 25 mg/kg/day, day 19, rats
# Description: Chronic adjuvant-induced polyarthritis test:
# Rats [50-70 gm] were weighed, ear tagged and intradermally inoculated in the tail base with 2.0 mg of heat killed M. butyricum suspended in 0.05 ml of white paraffin oil [n=12-15 per group]. Compounds were intragastrically administered beginning on the day of inoculation and continued for 18 days. Each daily dose was split [dose volume=0.5 ml/100 gm] and given approximately 7 hours apart. Animals were weighed every 3 days, and the dose was adjusted accordingly. On day 19, animals were sacrificed by inhalation of CO2, weighed, and total hind paw volume was measured by the displacement of water with a plethysmometer (Ugo Basile, Varese, Italy). A group of age-matched naive rats were included. These rats, designated "normal," were not inoculated with adjuvant or gavaged with vehicle.
# For individual experiments, the paw volume/body weight ratios for each dose were compared to the ratio for the vehicle treated control group by a two-tailed Dunnett's t-test (p ≤0.05). The Dunnett's test was preceded by a Bartlett's test of variance homogeneity across the dose groups. If the Bartlett's test was significant, an appropriate variance stabilizing transformation was applied to the data, and the Dunnett's test was performed on the transformed data.
# COX II enzyme = settings: metabolite of nabumetone; cited from earlier work
# [4] = relative to histamine; cited from earlier work
# [5] = insertion of the thio group; cited from earlier work
structure (smiles),measurement,setting,value
"C[C@H](Sc1cc(C(C)(C)C)c(O)c(C(C)(C)C)c1)[C@@H](C)OCC(=O)O (relative stereo) [Formula XX, (±)[2S*-[[3,5-bis(1,1-dimethylethyl)-4-hydroxyphenyl]thio]-1R*-methylpropoxy]acetic acid, reference compound]",5-lipoxygenase inhibition (in words),5-lipoxygenase,inhibited both superoxide generation and 5-lipoxygenase
same,superoxide generation (in words),[1],inhibited both superoxide generation and 5-lipoxygenase
CS(=O)(=O)Nc1ccc([N+](=O)[O-])cc1OC1CCCCC1 [N-(2-cyclohexyloxy-4-nitrophenyl)methanesulfonamide],anti-inflammatory activity (in words),[2],anti-inflammatory
same,gastric side effects (in words),[2],lacks gastric side effects
"CC(C)(C)c1cc(S[C@@H]2CCCC[C@H]2SCC(=O)O)cc(C(C)(C)C)c1 (relative stereo) [Example 5, trans-[[2-[[3,5-bis(1,1-dimethylethyl)phenyl]thio]cyclohexyl]thio]acetic acid]",pIC50,[3],5.51
same,minimal effective dose,Rats,25 mg/kg/day
same,% Inhibition in the paw volume to body weight ratio,Rats,64.4%
"O=C(O)CS[C@@H]1CCCC[C@H]1Sc1ccccc1 (relative stereo) [Example 7, trans-[[2-(phenylthio)cyclohexyl]thio]acetic acid]",5-lipoxygenase inhibition (in words),5-lipoxygenase,did not inhibit either 5-lipoxygenase or cyclooxygenase
same,cyclooxygenase inhibition (in words),[3],did not inhibit either 5-lipoxygenase or cyclooxygenase
same,superoxide generation (in words),[1],did inhibit superoxide generation
COc1ccc2cc(CC(=O)O)ccc2c1 [6-methoxy-2-napthylacetic acid],selective inhibition of COX II (in words),COX II enzyme,selectively inhibit the COX II enzyme
CCCCC/C=C\C\C=C/C=C/C=C/[C@@H](SC[C@H](NC(=O)CC[C@H](N)C(=O)O)C(=O)NCC(=O)O)[C@@H](O)CCCC(=O)O [LTC4],potency versus histamine in causing long lasting bronchoconstricting effects,[4],at least 100 times
"CC(C)(C)c1cc(S[C@@H]2CCCC[C@H]2OCC(=O)O)cc(C(C)(C)C)c1 (relative stereo) [Example 17, trans-[[2-[[3,5-bis(1,1-dimethylethyl)phenyl]thio]cyclohexyl]oxy]acetic acid]",pIC50,[3],5.42
same,minimal effective dose,Rats,25 mg/kg/day
same,% Inhibition in the paw volume to body weight ratio,Rats,50.8%
CC(C)(C)c1cc(SC2CCOC2=O)cc(C(C)(C)C)c1O (stereo not shown) [Compound 3],anti-inflammatory activity (in words),[5],loss of anti-inflammatory activity
